Read-outs that look alike come from different tables or passages of the source.
Experiments:
Type in all cases: in vivo
small brown planthopper [1] = assay: whole plant or invertebrate; conditions: Laodelphax striatellus, 72 h
Protocol: (§1) Rice seedlings grown in pots were subjected to soil drenching treatment with solutions of the inventive compounds at a predetermined concentration prepared to 10% acetone/water. Three days following treatment, ten second-instar small brown planthopper larvae were released onto each seedling. The treated seedlings and larvae were then held in an incubation chamber at 25° C. (16-hour period of light, 8-hour dark period). Three days after released, the numbers of live and dead insects were counted, and the mortality was calculated from the following formula. The test was carried out as two replications. Mortality (%)=[number of dead insects/(number of live insects+number of dead insects)]×100

[2] = tested on: brown rice planthopper having a low susceptibility to insecticides; parameters: key to Brown rice planthopper, Kumamoto low susceptibility (rice soil drenching), effect: mortality %, dead/(live+dead) ×100; conditions: rice soil drenching, 0.05 mg/pot
Protocol: as §1, with “days after” for “days following”, “second-instar” for “second-instar small”, “brown rice” for “brown”, “larvae having a low susceptibility to insecticides” for “larvae”, “The” for “The treated”, “and insects” for “and larvae”
The pests used in this test were insects that had been raised indoors for successive generations over a long period of time (susceptible line), and insects that had been raised indoors for successive generations after being collected (I) in 2007 within Kumamoto Prefecture and (II) in 2005 within Fukuoka Prefecture (field-collected lines).

cotton aphid = assay: whole plant or invertebrate; conditions: Aphis gossypii, foliar
Protocol: (§2) Leaf discs 2.0 cm in diameter were cut from cucumber plants grown in pots, and these were sprayed with solutions of the inventive compounds at a predetermined concentration prepared to 50% acetone/water (containing 0.05% Tween 20). The treated leaf discs were air dried, following which first-instar larvae were released onto the discs. The leaf discs and larvae were then held in an incubation chamber at 25° C. (16-hour period of light, 8-hour dark period). Three days after released, the numbers of live and dead insects were counted, and the mortality was calculated from the following formula. This was a two-replication test. Mortality (%)=[number of dead insects/(number of live insects+number of dead insects)]×100

small brown planthopper [3] = assay: whole plant or invertebrate; conditions: Laodelphax striatellus, in Triticum aestivum, 96 h
Protocol: as §1, with “Wheat seedling roots 48 hours after sowing” for “Rice seedlings grown in pots”, “treated” for “subjected to soil drenching treatment”, “After allowing the roots to absorb the chemical for 72 hours,” for “Three days following treatment,”, “Four” for “Three”

diamondback moth = assay: whole plant or invertebrate; conditions: Plutella xylostella, foliar
Protocol: as §2, with “5.0” for “2.0”, “cabbage” for “cucumber”, “second-instar” for “first-instar”

rice leaf bug = assay: whole plant or invertebrate; conditions: foliar, 72 h
Protocol: The treated seedlings were air-dried, then each was placed in a glass cylinder and two second-instar rice leaf bug larvae were released within the same glass cylinder. Following release of the insects, the tube was capped and held in an incubation chamber at 25° C. (16-hour period of light, 8-hour dark period). […] Three days after released, the numbers of live and dead insects were counted, and the mortality was calculated from the following formula. Mortality (%)=[number of dead insects/(number of live insects+number of dead insects)]×100

western flower thrips = assay: whole plant or invertebrate; conditions: Frankliniella occidentalis, foliar
Protocol: as §2, with “2.8” for “2.0”, “bean” for “cucumber”

common cutworm = assay: whole plant or invertebrate; conditions: foliar application, 500 ppm
Protocol: as §2, with “5.0” for “2.0”, “cabbage” for “cucumber”, “third-instar” for “first-instar”

[4] = rice soil drenching, 0.05 mg/pot (Table 13), read-out: Small brown planthopper (rice soil drenching), effect
[5] = rice soil drenching, 0.01 mg/pot (Table 13), read-out: Small brown planthopper (rice soil drenching), effect
[6] = soil, read-out: Small brown planthopper (rice soil drenching), effect
[7] = read-out: Insecticidal effects (mortality), western flower thrips first-instar larvae
[8] = read-out: Insecticidal effects (mortality), small brown planthopper second-instar larvae
[9] = read-out: Insecticidal effects (mortality), cotton aphid first-instar larvae
[10] = read-out: Insecticidal effects (mortality), diamondback moth second-instar larvae
[11] = soil, read-out: Insecticidal effects (mortality), small brown planthopper second-instar larvae

For `N#CN=c1ccccn1Cc1ccc(Cl)nc1` [Comparative Example 2, N-[1-((6-chloropyridin-3-yl)methyl)pyridin-2(1H)-ylidene]cyanamide, reference compound], the pest or weed control at 0.05 mg/pot (small brown planthopper [1]; [4]) was 20%.

With `CC(=O)/N=c1\ccccn1Cc1ccc(Cl)nc1` [Comparative Example 3, N-[1-((6-chloropyridin-3-yl)methyl)pyridin-2(2H)-ylidene]acetamide, reference compound] the pest or weed control at 0.05 mg/pot (small brown planthopper [1]; [4]) was 10%.

With `O=C(/C=C1\NCCN1Cc1ccc(Cl)nc1)C(F)(F)F` [Comparative Example 4, 3-[1-((6-chloropyridin-3-yl)methyl)imidazolidin-2-ylidene]-1,1,1-trifluoropropan-2-one, reference compound] the “Brown rice planthopper, Kumamoto low susceptibility (rice soil drenching), effect” value (“Brown rice planthopper” for short) [2] was 45, the pest or weed control at 0.01 mg/pot (small brown planthopper [1]; [5]) was 20% and the pest or weed control at 0.05 mg/pot (small brown planthopper [1]; [4]) was 100%.

For `O=C(/C=C1\SCCN1Cc1ccc(Cl)nc1)C(F)(F)F` [Comparative Example 5, 3-[3-((6-chloropyridin-3-yl)methyl)thiazolidin-2-ylidene]-1,1,1-trifluoropropan-2-one, reference compound], the “Brown rice planthopper” value [2] was 25, the pest or weed control at 0.01 mg/pot (small brown planthopper [1]; [5]) was 15% and the pest or weed control at 0.05 mg/pot (small brown planthopper [1]; [4]) was 95%.

With `O=C(C(C(=O)C(F)(F)F)=C1NCCN1Cc1ccc(Cl)nc1)C(F)(F)F` [Comparative Example 6, 3-[1-((6-chloropyridin-3-yl)methyl)imidazolidin-2-ylidene]-1,1,1,5,5,5-hexafluoropentan-2,4-dione, reference compound] the “Brown rice planthopper” value [2] was 25, the pest or weed control at 0.01 mg/pot (small brown planthopper [1]; [6]) was 20% and the pest or weed control at 0.05 mg/pot (small brown planthopper [1]; [6]) was 100%.

For `O=C(/N=C1\NCCN1Cc1ccc(Cl)nc1)C(F)(F)F` [Comparative Example 7, N-[1-((6-chloropyridin-3-yl)methyl)imidazolidin-2-ylidene]-2,2,2-trifluoroacetamide, reference compound], the “Brown rice planthopper” value [2] was 20, the pest or weed control at 0.01 mg/pot (small brown planthopper [1]; [5]) was 5% and the pest or weed control at 0.05 mg/pot (small brown planthopper [1]; [4]) was 63%.

In the case of `O=C(/N=C1\SCCN1Cc1ccc(Cl)nc1)C(F)(F)F` [Comparative Example 8, N-[3-((6-chloropyridin-3-yl)methyl)thiazolidin-2-ylidene]-2,2,2-trifluoroacetamide, reference compound], the pest or weed control at 0.05 mg/pot (small brown planthopper [1]; [4]) was 20%.

Work on `N#CNCc1ccc(Cl)nc1` [Compound 1 in Patent Document 1, N-[(6-chloropyridin-3-yl)methyl]cyanamide, reference compound] yielded a mortality at 500 ppm (cotton aphid; in Cucumis sativus, 72 h) of 65%.

For `O=C(N=c1ccccn1Cc1ccc(Cl)nc1)C(Cl)(Cl)Cl` [Compound 235, 2,2,2-trichloro-N-[1-((6-chloropyridin-3-yl)methyl)pyridin-2(1H)-ylidene]acetamide], the mortality at 20 µg/seedling (small brown planthopper [3]) was ≥ 80%, the mortality at 20 ppm (cotton aphid; in Cucumis sativus, 72 h) was ≥ 80% and the mortality at 100 ppm (cotton aphid; in Cucumis sativus, 72 h) was ≥ 80%. The mortality at 500 ppm (cotton aphid; in Cucumis sativus, 72 h) was ≥ 80%, the mortality at 100 ppm (diamondback moth; in Brassica oleracea, 72 h) was ≥ 80% and the mortality at 500 ppm (diamondback moth; in Brassica oleracea, 72 h) was ≥ 80%.

In the case of `O=C(CCl)N=c1ccccn1Cc1ccc(Cl)nc1` [Compound 236, 2-chloro-N-[1-((6-chloropyridin-3-yl)methyl)pyridin-2(1H)-ylidene]acetamide], the mortality at 50 ppm (rice leaf bug) was ≥ 80%, the mortality at 20 ppm (cotton aphid; in Cucumis sativus, 72 h) was ≥ 80% and the mortality at 100 ppm (cotton aphid; in Cucumis sativus, 72 h) was ≥ 80%.

For `CC(c1ccc(Cl)nc1)n1ccccc1=NC(=O)C(F)(F)F` (centres unmarked) [Compound 237, N-[1-(1-(6-chloropyridin-3-yl)ethyl)pyridin-2(1H)-ylidene]-2,2,2-trifluoroacetamide], the mortality at 500 ppm (western flower thrips; 72 h) was ≥ 80%, the mortality at 500 ppm (western flower thrips; [7]) was 90% and the “Insecticidal effects (mortality), common cutworm third-instar larvae” value (common cutworm) was 33. The mortality at 20 µg/seedling (small brown planthopper [3]) was ≥ 80%, the mortality at 0.5 mg/seedling (small brown planthopper [3]; [8]) was 50% and the mortality at 2 mg/seedling (small brown planthopper [3]; [8]) was 100%. The mortality at 20 mg/seedling (small brown planthopper [3]; [8]) was 100%, the mortality at 20 ppm (cotton aphid; [9]) was 85% and the mortality at 100 ppm (cotton aphid; [9]) was 100%. The mortality at 500 ppm (cotton aphid; [9]) was 100%, the mortality at 20 ppm (cotton aphid; in Cucumis sativus, 72 h) was ≥ 80% and the mortality at 100 ppm (cotton aphid; in Cucumis sativus, 72 h) was ≥ 80%. For the same molecule, the mortality at 500 ppm (cotton aphid; in Cucumis sativus, 72 h) was ≥ 80%, the mortality at 20 ppm (diamondback moth; [10]) was 100% and the mortality at 100 ppm (diamondback moth; [10]) was 100%. For the same molecule, the mortality at 500 ppm (diamondback moth; [10]) was 100%, the mortality at 100 ppm (diamondback moth; in Brassica oleracea, 72 h) was ≥ 80% and the mortality at 500 ppm (diamondback moth; in Brassica oleracea, 72 h) was ≥ 80%. The pest or weed control at 0.01 mg/pot (small brown planthopper [1]; [5]) was 75%, the pest or weed control at 0.05 mg/pot (small brown planthopper [1]; [4]) was 100% and the mortality at 0.05 mg/seedling (small brown planthopper [1]; soil) was ≥ 80%. For the same molecule, the mortality at 0.01 mg/pot (small brown planthopper [1]; [11]) was 75% and the mortality at 0.05 mg/pot (small brown planthopper [1]; [11]) was 100%.

For `O=C(N=c1ccccn1Cc1ccc(Cl)nc1)C(F)F` [Compound 238, N-[1-((6-chloropyridin-3-yl)methyl)pyridin-2(1H)-ylidene]-2,2-difluoroacetamide], the mortality at 100 ppm (western flower thrips; 72 h) was ≥ 80%, the mortality at 100 ppm (western flower thrips; [7]) was 95% and the “Insecticidal effects (mortality), common cutworm third-instar larvae” value (common cutworm) was 0. For the same molecule, the mortality at 20 µg/seedling (small brown planthopper [3]) was ≥ 80%, the mortality at 0.063 mg/seedling (small brown planthopper [3]; [8]) was 25% and the mortality at 0.25 mg/seedling (small brown planthopper [3]; [8]) was 100%. For the same molecule, the mortality at 0.5 mg/seedling (small brown planthopper [3]; [8]) was 100%, the mortality at 2 mg/seedling (small brown planthopper [3]; [8]) was 100% and the mortality at 20 mg/seedling (small brown planthopper [3]; [8]) was 100%. For the same molecule, the mortality at 1.25 ppm (cotton aphid; [9]) was 100%, the mortality at 5 ppm (cotton aphid; [9]) was 100% and the mortality at 20 ppm (cotton aphid; [9]) was 100%. The mortality at 100 ppm (cotton aphid; [9]) was 100%, the mortality at 20 ppm (cotton aphid; in Cucumis sativus, 72 h) was ≥ 80% and the mortality at 100 ppm (cotton aphid; in Cucumis sativus, 72 h) was ≥ 80%. For the same molecule, the mortality at 20 ppm (diamondback moth; [10]) was 60%, the mortality at 100 ppm (diamondback moth; [10]) was 100% and the mortality at 100 ppm (diamondback moth; in Brassica oleracea, 72 h) was ≥ 80%. The pest or weed control at 0.005 mg/pot (small brown planthopper [1]; rice soil drenching, 0.005 mg/pot (Table 13), read-out: Small brown planthopper (rice soil drenching), effect) was 33%, the pest or weed control at 0.01 mg/pot (small brown planthopper [1]; [5]) was 100% and the pest or weed control at 0.05 mg/pot (small brown planthopper [1]; [4]) was 100%. The mortality at 0.05 mg/seedling (small brown planthopper [1]; soil) was ≥ 80%, the mortality at 0.005 mg/pot (small brown planthopper [1]; [11]) was 33% and the mortality at 0.01 mg/pot (small brown planthopper [1]; [11]) was 100%. For the same molecule, the mortality at 0.05 mg/pot (small brown planthopper [1]; [11]) was 100%.

With `O=C(N=c1ccccn1Cc1ccc(Cl)nc1)C(Br)Br` [Compound 241, 2,2-dibromo-N-[1-((6-chloropyridin-3-yl)methyl)pyridin-2(1H)-ylidene]-acetamide] the mortality at 20 µg/seedling (small brown planthopper [3]) was ≥ 80%, the mortality at 20 ppm (cotton aphid; in Cucumis sativus, 72 h) was ≥ 80% and the mortality at 100 ppm (cotton aphid; in Cucumis sativus, 72 h) was ≥ 80%. The mortality at 500 ppm (diamondback moth; in Brassica oleracea, 72 h) was ≥ 80%.
